Where two headings read alike, the source gives them in different places.
Assays:
[1] = system: OPM2-P10 (pomalidomide-resistant); assay: Cell proliferation assay (CTG, 120 h); format: cell-based; settings: Homo sapiens, read-out: OPM-2.P10 120 h IC50
Protocol: (§1) Cell Culture Materials: Human multiple myeloma cell lines were purchased from the vendors and cultured at 37° C. with 5% CO2 in the media as indicated in Table 1. Lenalidomide and pomalidomide resistant cell lines were obtained by methods as generally described previously (Lopez-Girona et al Leukemia 2012; 26(11): 2335). All cell lines were kept in log phase, and cell density and viability were monitored by trypan blue exclusion using the Vi-cell XR cell viability analyzer (Beckman Coulter, Brea, CA).
(§2) Preparation of Solutions of Test Article: Compounds were plated into black 384-well plates (Corning Inc.) to a final DMSO volume of 0.1% assuming a maximal volume of 50 μL. A 10-point dose response starting at 10 μM with a 1:3 dilution was printed in duplicate by acoustic dispense using the EDC ATS-100 platform. Alternatively, the 10-point dose response starting at 10 μM with a 1:10 dilution, or starting at 100 nM with a 1:3 dilutions were used.
(§3) Cell Proliferation Assays: The effect of compounds on the proliferation/viability of the hematological cell lines (Table 1), was assessed after 120 h incubation using CTG (Promega), according to manufacturer's instructions. Hematological cell lines were dispensed into compound plates by a Multidrop Combi Reagent Dispenser (Thermo Scientific, Waltham, MA) at a concentration of 0.1×10^6 cells per mL in a 50 μL total volume. At 120 h, 25 μL per well of CTG was dispensed by a Multidrop Combi Reagent Dispenser and adenosine triphosphate (ATP) release by viable cells was measured as relative luminescence units after 30 minutes using the Envision platform.
(§4) Results. […] The MM cell lines selected for this study were lines sensitive and resistant to lenalidomide and/or pomalidomide (Table 1), two agents used in the clinic to treat myeloma patients. Proliferation was assessed using the CellTitre-Glo© assay. Results for cultures incubated with the compounds were normalized to results for control cultures for each cell line. The IC50 for inhibition of cell growth by the compounds was determined for each cell line using ActivityBase software.

NCI-H929 [2] = assay: Cell proliferation assay (CTG, 120 h); format: cell-based; settings: Homo sapiens
Protocol: as §1, §2, §3, §4

OPM2 = assay: Cell proliferation assay (CTG, 120 h); format: cell-based; settings: Homo sapiens, OPM-2
Protocol: as §1, §2, §3, §4

MM cell lines = assay: Daratumumab-mediated ADCP assay; format: cell-based, human; settings: for daratumumab-mediated ADCP: ARH-77 cell line
Protocol: ADCP assay: The effect of Compound 2 or pomalidomide on daratumumab-mediated ADCP was determined in a panel of MM cell lines. Monocytes were plated in a 96 well plate at 40,000 cells per well in 100 μL volume of complete AIM-V media containing 50 ng/mL of M-CSF. The cells were allowed to settle onto the plate for 15 minutes at room temperature before placing into 37° C., 5% C02 incubator for 9 days to allow for differentiation into macrophages. The culture media was replenished with fresh complete media every 3-4 days. On the morning of the ADCP assay, the macrophages were serum starved for 2-4 hours at 37° C., 5% C02 before co-culturing with the MM cells. The MM cells were pretreated with sub-lethal concentrations of Compound 2 or pomalidomide for 72 h. On the day of the assay, the MM cells were washed with PBS and labeled with CSFE for 15 minutes. The reaction was stopped with an equal volume of 20% FBS. The cells were washed twice with PBS and resuspended in AIM-V media at 1.6×10^6 cells/mL. Then 50 μL of MM cells was mixed with 50 μL of 2 μg/mL daratumumab for 10 minutes at room temperature before adding to the serum starved macrophages. Each condition was assayed in triplicate. The final volume of the assay was 200 μL containing 10% human serum with an effector to target ratio of […]. The plate was spun at 500 rpm for 1 minute followed by incubation at 37° C., 5% CO2 for 3 h. At the end of the incubation, the plate was washed with 100 μL of PBS and the remaining cells were stained with anti-CD14 and anti-CD138 to identify the macrophages and MM cells, respectively. The plate was washed and the wells were filled with 100 μL of PBS. The macrophages were detached from the bottom of the wells with the addition of 50 μL of 0.25% trypsin. The samples were neutralized with the addition of 50 μL of complete AIM-V media. The samples were analyzed on flow cytometer. The percent phagocytosis was determined by the CSFE/CD14 double positive cells divided by the total number of CD14+ cells times 100.

OPM2-P10 = assay: PBMC and MM cell treatment assay (single culture vs co-culture); format: cell-based, human; settings: for IC50: Homo sapiens, PBMC, read-out: Immune-mediated Cell Killing IC50
Protocol: (§5) PBMC and MM Cell Treatment Assay Procedure. Ninety-six-well dishes were pre-coated with anti-CD3 antibody (OKT3, 3 μg/mL) and incubated at 4° C. overnight before the start of the experiment. Frozen PBMC donor cells were thawed at 37° C. for 2 minutes in RPMI medium with 10% FBS and cell counts and viability were measured on the Vi-CELL analyzer. Peripheral blood mononuclear cells were washed and diluted to 1×10^6 cells/mL and dispensed into the compound-treated plates in a total volume of 200 μL. Cells were incubated with compounds for 2 h before being transferred onto anti-CD3-coated plates and incubated for an additional 72 h. At the same time, MM cell lines (NCI-H929, H929-1051, OPM2, OPM2-P10) were diluted to a final concentration of 0.1×10^6 cells/mL and labeled with CellTrace CFSE according to manufacturer's instructions. Multiple myeloma cell lines were then dispensed into compound-treated plates at a total volume of 200 μL and incubated for 72 h. After 72 h, the PBMCs and MM cells were counted and transferred into a U-bottom 96-well plate at a final T:E ratio of 1:5. After 24 h coculture, specific target cell lysis by PBMC cells was measured using Annexin V-AF647 and 7-AAD according to manufacturer's instructions and samples were run on the Attune NxT Cytometer.
(§6) Because preincubation of immune cells with Compound 2 enhanced the targeting and lysing of MM cells, the effect of preincubation of MM cells with Compound 2 on their susceptibility to immune-mediated killing was also explored (FIG. 16A, FIG. 16B, FIG. 16C, and FIG. 16D, Table 12). Four MM cell lines and anti-CD3 antibody-activated PBMCs were separately preincubated with Compound 2, lenalidomide, or pomalidomide for 72 h. When anti-CD3 antibody-activated PBMCs and MM lines were both pretreated with Compound 2, lenalidomide, or pomalidomide, followed by co-culture, the effects on the PBMC-induced MM cell lysis were enhanced both in the potency and magnitude of the killing response. […] For the pomalidomide-resistant OPM2-P10 cell line, Compound 2 treatment of the MM cells enhanced the immune-mediated killing by ˜3000-fold (Table 12).

NCI-H929 [3] = assay: as above; format: cell-based, human; settings: for IC50: Homo sapiens, NCI-H929, NCI-H929, read-out: Immune-mediated Cell Killing IC50
Protocol: as §5, §6

H929-1051 = assay: as above; format: cell-based, human; settings: for IC50: Homo sapiens, PBMC, read-out: Immune-mediated Cell Killing IC50
Protocol: as §5, §6

SMILES | IC50 [1] [nM] | IC50 (NCI-H929 [2]) [nM] | IC50 (OPM2) [nM] | daratumumab-mediated ADCP of pretreated MM cells (MM cell lines; 72 h pretreatment, macrophages E:T 2:1) | daratumumab-mediated ADCP (MM cell lines) | enhancement of immune-mediated killing, co-culture versus single culture IC50 (OPM2-P10) [fold] | IC50 (OPM2-P10; Co-culture with PBMCs) [nM] | IC50 (OPM2-P10; Single culture) [nM] | IC50 (NCI-H929 [3]; Co-culture with PBMCs) [nM] | IC50 (NCI-H929 [3]; Single culture) [nM] | enhancement of killing, co-culture versus single culture IC50 (NCI-H929 [3]; NCI-H929) [fold] | enhancement of killing, co-culture versus single culture IC50 (H929-1051; H929-1051) [fold] | IC50 (H929-1051; H929-1051, Single culture) [nM] | IC50 (H929-1051) [nM] | IC50 (H929-1051; H929-1051, Co-culture with PBMCs) [nM]
N#Cc1ccc(N2CCN(Cc3ccc(COc4cccc5c4CN(C4CCC(=O)NC4=O)C5=O)cc3)CC2)c(F)c1 (racemic) [Compound 1, 4-(4-(4-(((2-(2,6-dioxopiperidin-3-yl)-1-oxoisoindolin-4-yl)oxy)methyl)benzyl)piperazin-1-yl)-3-fluorobenzonitrile] | 19 | < 0.5 | < 0.5 | – | – | – | – | – | – | – | – | – | – | – | –
N#Cc1ccc(N2CCN(Cc3ccc(COc4cccc5c4CN([C@H]4CCC(=O)NC4=O)C5=O)cc3)CC2)c(F)c1 [Compound 2, (S)-4-(4-(4-(((2-(2,6-dioxopiperidin-3-yl)-1-oxoisoindolin-4-yl)oxy)methyl)benzyl)piperazin-1-yl)-3-fluorobenzonitrile] | 4.3 | 0.07 | 0.07 | more sensitive to daratumumab-mediated ADCP compared to untreated and pomalidomide treated cells | no enhanced ADCP | ~3000 | 3.1 | > 10000 | 0.087 | 581 | ~7000 | ~6000 | 575 | 0.1 | –
Nc1cccc2c1C(=O)N(C1CCC(=O)NC1=O)C2=O (stereo not drawn) [Pomalidomide, pomalidomide] | – | – | – | – | no enhanced ADCP | – | 1180 | > 10000 | 44.4 | > 10000 | – | – | > 10000 | – | 71.3
